Experimental data as given in patent publication US8247211B2, “Glycopeptide antibiotics” (American Cyanamid Company, priority 2001, dated 2012).
Converted amounts (≈) assume the structure as drawn.

Columns and labels:
Experiment in all cases: In vitro antibacterial evaluation: minimum inhibitory concentration (MIC), broth dilution method
Format in all cases: cell-based
[1] = system: Enterococcus sp.
Summary of the method: (§1)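 Values are minimum inhibitory concentrations, meaning the smallest antibiotic concentration that stops growth of the organism. They come from broth dilution in Muller-Hinton II […] per NCCLS guidance (M7-A2), using 5×10^5 CFU/mL and concentrations from 64 to 0.06 μg/mL.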

[2] = system: Escherichia coli
Summary of the method: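 First, organisms are seeded at 5×10^5 CFU/mL into Muller-Hinton II […]. Next, antibiotic is applied across 64-0.06 μg/mL by broth dilution (NCCLS M7-A2). Finally, the lowest inhibitory concentration is recorded as MIC.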

[3] = system: Staphylococcus sp.; details: 18 hours at 35° C.
Summary of the method: as §1

[4] = system: Streptococcus sp.; details: 18 hours at 35° C.
Summary of the method: as §1

[5] = system: Escherichia coli; remark: listed apart in the source

MIC Enterococcus avium (GC 4558) [1] [µg/mL] | MIC Enterococcus faecalis (ATCC 29212) [1] [µg/mL] | MIC Enterococcus faecalis (GC 2242) ([1]; 18 hours at 35° C.) [µg/mL] | MIC Enterococcus faecalis (GC 4552) ([1]; 18 hours at 35° C.) [µg/mL] | MIC Enterococcus faecalis (GC 4553) [1] [µg/mL] | MIC Enterococcus faecalis (GC 4554) [1] [µg/mL] | MIC Enterococcus faecium (GC 2243) [1] [µg/mL] | MIC Enterococcus faecium (GC 4556) [1] [µg/mL] | MIC Enterococcus faecium (GC 4557) [1] [µg/mL] | MIC Escherichia coli (GC 4559) [2] [µg/mL] | MIC Escherichia coli (GC 4560) [2] [µg/mL] | MIC Coagulase Negative Staphylococcus (GC 4547) [3] [µg/mL] | MIC Coagulase Negative Staphylococcus (GC 4548) [3] [µg/mL] | MIC Coagulase Negative Staphylococcus (GC 4549) [3] [µg/mL] | MIC Coagulase Negative Staphylococcus (GC 4551) [3] [µg/mL] | MIC Staphylococcus aureus (ATCC 29213) [3] [µg/mL] | MIC Staphylococcus aureus (GC 1131) [3] [µg/mL] | MIC Staphylococcus aureus (GC 4541) [3] [µg/mL] | MIC Staphylococcus aureus (GC 4542) [3] [µg/mL] | MIC Staphylococcus aureus (GC 4544) [3] [µg/mL] | SMILES | further results
0.5 (≈ 0.35 µM) | 0.5 (≈ 0.35 µM) | 0.5 (≈ 0.35 µM) | >0.5 | 0.5 (≈ 0.35 µM) | >0.5 | 16 (≈ 11.2 µM) | 16 (≈ 11.2 µM) | 2 (≈ 1.4 µM) | >0.5 | 0.5 (≈ 0.35 µM) | 2 (≈ 1.4 µM) | 2 (≈ 1.4 µM) | 2 (≈ 1.4 µM) | 4 (≈ 2.8 µM) | 0.5 (≈ 0.35 µM) | 0.5 (≈ 0.35 µM) | 0.5 (≈ 0.35 µM) | 0.5 (≈ 0.35 µM) | 0.5 (≈ 0.35 µM) | CC(c1ccccc1)C1NC(=O)CNC(=O)C(CO)NC(=O)C(C(O)C2CNC(=N)N2C2OC(CO)C(O)C(O)C2O)NC(=O)C(C(O)C2CNC(=N)N2)NC(=O)C(Cc2ccc(OC3OC(CO)C(OC4OC(COC(=O)NCc5ccccc5)C(O)C(O)C4O)C(O)C3O)cc2)NC1=O (stereo not drawn) [Example 257b, γ-O-[(Benzylamino)carbonyl]-cyclo[glycyl-β-methylphenylalanyl-O-(4-O-hexopyranosylhexopyranosyl)tyrosyl-3-(2-iminoimidazolidin-4-yl)seryl-3-(3-hexopyranosyl-2-iminoimidazolidin-4-yl)serylseryl]] | MIC Enterococcus faecalis (GC 2691) ([1]; Enterococcus faecalis (GC 2691), 18 hours at 35° C.): 0.5 µg/mL (≈ 0.35 µM); MIC Enterococcus faecalis (GC 3059) ([1]; Enterococcus faecalis (GC 3059), 18 hours at 35° C.): 0.5 µg/mL (≈ 0.35 µM); MIC Enterococcus faecalis (GC 6189) ([1]; Enterococcus faecalis (GC 6189)): 0.5 µg/mL (≈ 0.35 µM); MIC Coagulase Negative Staphylococcus (GC 6257) ([3]; Coagulase Negative Staphylococcus (GC 6257)): 1 µg/mL (≈ 0.7 µM); MIC Staphylococcus aureus (GC 3051) ([3]; Staphylococcus aureus (GC 3051)): 0.5 µg/mL (≈ 0.35 µM); MIC Staphylococcus aureus (GC 3053) ([3]; Staphylococcus aureus (GC 3053)): 0.5 µg/mL (≈ 0.35 µM); MIC Staphylococcus aureus (GC 4545) [3]: 0.5 µg/mL (≈ 0.35 µM); MIC Staphylococcus aureus-SMITH (GC 4543) [3]: 0.5 µg/mL (≈ 0.35 µM); MIC Staphylococcus haemolyticus (GC 4546) [3]: 2 µg/mL (≈ 1.4 µM); MIC Streptococcus agalactiae (GC 4564) [4]: 1 µg/mL (≈ 0.7 µM); MIC Streptococcus pneumoniae (ATCC 6301) ([4]; Streptococcus pneumoniae (ATCC 6301)): 0.25 µg/mL (≈ 0.175 µM); MIC Streptococcus pneumoniae (GC 1894) ([4]; Streptococcus pneumoniae (GC 1894)): 0.25 µg/mL (≈ 0.175 µM); MIC Streptococcus pneumoniae (GC 4565) ([4]; Streptococcus pneumoniae (GC 4565)): 0.5 µg/mL (≈ 0.35 µM); MIC Streptococcus pyogenes (GC 4563) ([4]; Streptococcus pyogenes (GC 4563)): 0.12 µg/mL (≈ 0.084 µM); MIC Escherichia coli (ATCC 25922) [5]: >0.5 µg/mL
>64 | >64 | >64 | >64 | >64 | >64 | >64 | >64 | >64 | >64 | >64 | >64 | >64 | >64 | >64 | >64 | >64 | >64 | >64 | >64 | CC(c1ccc(F)cc1)C1NC(=O)CNC(=O)C(CO)NC(=O)C(C(O)C2CNC(=N)N2C2OC(CO)C(O)C(O)C2O)NC(=O)C(C(O)C2CNC(=N)N2)NC(=O)C(Cc2ccc(OC3OC(CO)C(OC4OC(CO)C(O)C(O)C4O)C(O)C3O)cc2)NC1=O (stereo not drawn) [Example 261a, Cyclo[glycyl-4-fluoro-β-methylphenylalanyl-O-(4-O-hexopyranosylhexopyranosyl)tyrosyl-3-(2-iminoimidazolidin-4-yl)seryl-3-(3-hexopyranosyl-2-iminoimidazolidin-4-yl)serylseryl]] | MIC Staphylococcus aureus (GC 4545) [3]: >64 µg/mL; MIC Staphylococcus aureus-SMITH (GC 4543) [3]: >64 µg/mL; MIC Staphylococcus haemolyticus (GC 4546) [3]: >64 µg/mL; MIC Streptococcus agalactiae (GC 4564) [4]: >64 µg/mL; MIC Streptococcus pyogenes (ID-3187) [4]: >64 µg/mL; MIC Escherichia coli (ATCC 25922) [5]: >64 µg/mL
64 (≈ 45.8 µM) | >64 | 64 (≈ 45.8 µM) | 64 (≈ 45.8 µM) | 64 (≈ 45.8 µM) | >64 | >64 | 64 (≈ 45.8 µM) | 16 (≈ 11.4 µM) | >64 | 4 (≈ 2.86 µM) | 8 (≈ 5.72 µM) | 4 (≈ 2.86 µM) | 4 (≈ 2.86 µM) | 8 (≈ 5.72 µM) | 8 (≈ 5.72 µM) | 16 (≈ 11.4 µM) | 16 (≈ 11.4 µM) | 16 (≈ 11.4 µM) | 8 (≈ 5.72 µM) | CC(C)CC(=O)OC1C(OC2C(CO)OC(Oc3ccc(CC4NC(=O)C(C(C)c5ccc(F)cc5)NC(=O)CNC(=O)C(CO)NC(=O)C(C(O)C5CNC(=N)N5C5OC(CO)C(O)C(O)C5O)NC(=O)C(C(O)C5CNC(=N)N5)NC4=O)cc3)C(O)C2O)OC(CO)C(O)C1O (stereo not drawn) [Example 261b, Cyclo[glycyl-4-fluoro-β-methylphenylalanyl-O-[4-O-[2-O-(3-methylbutanoyl)hexopyranosyl]-hexopyranosyl]tyrosyl-3-(2-iminoimidazolidin-4-yl)seryl-3-(3-hexopyranosyl-2-imino-imidazolidin-4-yl)serylseryl]] | MIC Staphylococcus aureus (GC 4545) [3]: 16 µg/mL (≈ 11.4 µM); MIC Staphylococcus aureus-SMITH (GC 4543) [3]: 8 µg/mL (≈ 5.72 µM); MIC Staphylococcus haemolyticus (GC 4546) [3]: 8 µg/mL (≈ 5.72 µM); MIC Streptococcus agalactiae (GC 4564) [4]: 8 µg/mL (≈ 5.72 µM); MIC Streptococcus pyogenes (ID-3187) [4]: 4 µg/mL (≈ 2.86 µM); MIC Escherichia coli (ATCC 25922) [5]: >64 µg/mL
